In PubChem BioAssay AID463203 (Broad Institute, 2010):
The source made the active and inactive calls.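 How the source made its calls: active means more than half of replicate measurements showing over 20% loss of kinase signal relative to plate controls; inconclusive means some but at most half of replicates over 20% loss; inactive means no replicate over 20% signal loss.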

target: Glycogen synthase kinase-3 alpha (Homo sapiens) (UniProt P49840); assay: concentration-response blocking of human GSK3A – biochemical, luminescence, cell-free homogeneous, retest, dose response (AID 463203); details: GSK-3 alpha enzyme, ADP-Glo luminescence, 60 min
Sequence (P49840 whole entry, looked up): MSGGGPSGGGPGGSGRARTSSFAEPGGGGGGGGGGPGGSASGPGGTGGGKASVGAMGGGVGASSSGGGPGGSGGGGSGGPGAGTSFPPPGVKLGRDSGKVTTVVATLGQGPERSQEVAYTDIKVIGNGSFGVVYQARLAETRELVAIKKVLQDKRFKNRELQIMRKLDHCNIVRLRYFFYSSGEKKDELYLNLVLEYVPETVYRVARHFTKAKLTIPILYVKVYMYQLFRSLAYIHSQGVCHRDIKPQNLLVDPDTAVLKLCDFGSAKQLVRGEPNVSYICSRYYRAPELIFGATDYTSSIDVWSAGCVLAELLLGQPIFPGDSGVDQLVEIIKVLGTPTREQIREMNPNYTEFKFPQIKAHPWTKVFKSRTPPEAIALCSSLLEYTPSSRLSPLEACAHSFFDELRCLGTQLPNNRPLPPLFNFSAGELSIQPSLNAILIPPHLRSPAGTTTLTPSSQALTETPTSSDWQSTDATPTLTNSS

Row | SMILES | AC50
1 | CCOc1ccc(Cn2nnc(C(=O)Nc3ccc(OC)cc3OC)c2N)cc1 | > 30 µM (inactive)
2 | CN(C(=O)CN1CC=C(c2ccccc2)CC1)c1c(N)n(Cc2ccccc2)c(=O)[nH]c1=O | > 30 µM (inactive)
3 | CSc1cccc(NC(=O)CN(C)S(=O)(=O)c2cnc[nH]2)c1 | > 30 µM (inactive)
4 | COc1ccc(OC)c(/C=C2\S/C(=N/NC(=O)c3ccc4ccccc4c3)NC2=O)c1 | > 30 µM (inactive)
5 | Cc1ccc(C(=O)N/N=c2\oc3ccccc3cc2C(N)=O)cc1 | > 30 µM (inactive)
6 | CCCCCCN=C(CC)c1c(O)n(CCCC)c(=O)[nH]c1=O | > 30 µM (inactive)
7 | Brc1ccc(C2=Nn3c(nnc3-c3cccnc3)SC2)s1 | > 30 µM (inactive)
8 | O=C(CSCc1ccc([N+](=O)[O-])cc1)NN=C1CCCCCC1 | > 30 µM (inactive)
9 | O=c1[nH]ncc(N/N=C\c2cccs2)c1Cl | 6.07 µM
10 | CCCCc1ccc(NC(=O)N[C@@H](C)C(=O)O)cc1 | > 30 µM (inactive)
11 | Cc1ccc(O)c(C(=O)c2coc(=N)c(C(=O)NC(C)C)c2)c1 | 22.1 µM
12 | CCOC(=O)CCc1c(C)c2ccc(O)cc2oc1=O | > 30 µM (inactive)
13 | Cc1ccc(CSCCNC(=O)c2ccccc2)cc1 | > 30 µM (inactive)
14 | CC1=C(C(=O)OC(C)C)C(c2cccc(F)c2)n2ncnc2N1 (stereo unspecified) | > 30 µM (inactive)
15 | CCOC(=O)c1cnc2c(Cl)c(Cl)ccc2c1N1CCN(C)CC1 | > 30 µM (inactive)
16 | CCSc1nnc2ccc(-c3cccs3)nn12 | > 30 µM (inactive)
17 | NC(=O)c1cn(C2OC(CO)C(O)C2O)c2ncnc(N)c12 (stereo unspecified) | 6.52 µM
18 | CCCCCCN=C(C)c1c(O)n(CCCC)c(=O)[nH]c1=O | > 30 µM (inactive)
19 | CCc1ccc(/C=N/NC(=O)c2nnn(-c3nonc3N)c2C(C)C)cc1 | > 30 µM (inactive)
20 | Cc1cc(C)n(CCC(=O)N=Nc2c(O)[nH]c3ccc(Br)cc23)n1 | 11.5 µM
21 | Fc1cccc(/C=N/Nc2ccc3ccccc3n2)c1 | > 30 µM (inactive)
22 | COc1cccc(C(=O)O/N=C(\N)c2ccccn2)c1 | 16.8 µM

Row | SMILES | AC50
23 | Cc1onc(-c2ccccc2Cl)c1C(=O)Nc1cccc(-c2nc3ncccn3c2C)c1 | > 30 µM (inactive)
24 | O=c1[nH]nc(SCc2nnc(-c3cccc(Cl)c3)o2)n1C1CCCCC1 | > 30 µM (inactive)
25 | CCc1ccccc1NC(=O)CSc1nnc([C@@H](N)Cc2c[nH]c3ccccc23)o1 | > 30 µM (inactive)
26 | COc1cc(/C=N\NC(=O)c2ccc(-c3ccccc3)cc2)cc(Br)c1O | > 30 µM (inactive)
27 | Cc1ccc(NC(=O)C2CCN(c3ncnc4sc(C)c(C)c34)CC2)cc1S(=O)(=O)N(C)C | > 30 µM (inactive)
28 | CCOC(=O)c1c(Cc2ccccc2)c[nH]c1C | > 30 µM (inactive)
29 | Cc1ccc(C(=O)c2c(NC(=O)CSc3nnc(N)s3)sc3c2CCCC3)cc1 | > 30 µM (inactive)
30 | Cc1ccc2nc3c(cc2c1)c(NS(=O)(=O)c1ccccc1)nn3CC(C)C | > 30 µM (inactive)
31 | N#CC1=C2SCN(Cc3ccco3)CN2C(=O)CC1c1c(F)cccc1Cl (stereo unspecified) | > 30 µM (inactive)
32 | O=C(CSc1ccc2nnc(-c3ccccn3)n2n1)N1CCOCC1 | > 30 µM (inactive)
33 | NS(=O)(=O)c1ccc(NC(=O)CSc2nnc(-c3ccc(O)cc3)o2)cc1 | 4.93 µM
34 | CCc1c(C)sc(NC(=O)C2CC2c2ccccc2)c1C(N)=O (stereo unspecified) | > 30 µM (inactive)
35 | CCOC(=O)N1CCC(N2CCN(S(=O)(=O)c3ccc4ccccc4c3)CC2)CC1 | > 30 µM (inactive)
36 | O=C(c1ccco1)N(Cc1ccccc1)c1cccc([N+](=O)[O-])c1 | > 30 µM (inactive)
37 | C/C(=N\NC(=O)c1nnn(-c2nonc2N)c1CN1CCCCCC1)c1ccc(Br)cc1 | 29.7 µM
38 | Cc1nc(NC(=O)c2ccc(Br)o2)sc1C | > 30 µM (inactive)
39 | CC(C)N=C(NC#N)SCc1ccccc1F | > 30 µM (inactive)
40 | O=S(=O)(O)c1cccc(N=Nc2c(O)ccc3ccccc23)c1 | 8.34 µM
41 | CCOc1ccc(Nc2nc(N)c3ccccc3n2)cc1 | 31.2 µM
42 | COC(=O)/C=C1/S/C(=N/NC(=O)c2ccccc2OC)NC1=O | > 30 µM (inactive)
43 | COc1ccc(-c2noc(CCC(=O)Nc3nc4ccccc4s3)n2)cc1 | > 30 µM (inactive)
44 | O=C(O)c1ccc(N=Cc2c(O)ccc3oc4c(c23)CCCC4)cc1 | > 30 µM (inactive)

Row | SMILES | AC50
45 | COc1cc(/C=N/NC(=O)c2cnccn2)ccc1O | > 30 µM (inactive)
46 | S=C(Nc1cccc(Cl)c1)Nc1cccc2cnccc12 | > 30 µM (inactive)
47 | N#CC1=C(SCc2ccccc2)NC(=O)CC1c1ccco1 (stereo unspecified) | > 30 µM (inactive)
48 | O=C1NC(=O)/C(=C/c2ccc(-c3cc(C(=O)O)ccc3Cl)o2)S1 | 13.5 µM
49 | Cc1ccc(N=C2NC(=O)/C(=C\c3ccc(C)s3)S2)cc1 | > 30 µM (inactive)
50 | COc1ccccc1-n1c(O)c(C=NCc2ccc3c(c2)OCO3)c(=O)[nH]c1=O | 31.3 µM
51 | COC(=O)CNc1nc(Cl)nc(NC2CCCCC2)n1 | > 30 µM (inactive)
52 | COC(=O)C1(C#N)C(c2ccccc2)C1(C(=O)OC)C(=O)OC (stereo unspecified) | > 30 µM (inactive)
53 | N#CCCN(Cc1ccccc1)S(=O)(=O)c1cccs1 | > 30 µM (inactive)
54 | O=[N+]([O-])c1ccc(Nc2nc(NC3CCCCC3)nc(N3CCCC3)n2)cc1 | > 30 µM (inactive)
55 | Nc1nonc1-n1nnc(C(=O)N/N=C/c2cccnc2)c1-c1cccs1 | 1.03 µM
56 | COc1ccc(-c2ncncc2-c2ccccc2)c(O)c1 | 13.2 µM
57 | CNC(=O)CSc1nnc(-c2ccco2)n1-c1cccc(OC)c1 | > 30 µM (inactive)
58 | COC(=O)c1cc2cc(Cl)ccc2nc1SC | > 30 µM (inactive)
59 | CCc1cc2c3c(c(=O)oc2cc1O)CCCC3 | > 30 µM (inactive)
60 | c1ccc(-c2noc(-c3ccc4c(c3)OCO4)n2)cc1 | > 30 µM (inactive)
61 | CCOC(=O)c1nnn(-c2nonc2N)c1-c1ccc(F)cc1 | 16.1 µM
62 | O=c1[nH]nc(SCc2ccccc2Cl)n1-c1ccc2c(c1)OCCO2 | 7.11 µM
63 | O=c1[nH]nnc2c1sc1nc(N3CCOCC3)c3c(c12)CCCC3 | 13.4 µM
64 | Cc1ccc(NC(=O)c2cc(-n3cnnc3)ccc2Cl)cc1 | > 30 µM (inactive)
65 | CC(C)C(=O)Nc1cccc2nsnc12 | > 30 µM (inactive)
66 | O=C(O)CCCNc1ccc([N+](=O)[O-])c(NCCCC(=O)O)n1 | > 30 µM (inactive)

Row | SMILES | AC50
67 | Cc1ccc2c(c1N)C(=O)c1ccccc1C2=O | > 30 µM (inactive)
68 | COc1cccc(NC(=O)[C@@H]2CCCN2S(=O)(=O)c2cccc3cccnc23)c1 | 18.1 µM
69 | O=C(CSc1ccc2nnc(-c3ccc(F)cc3)n2n1)N1CCCc2ccccc21 | 0.98 µM
70 | CCOC(=O)c1nnn(-c2nonc2N)c1-c1ccc(Br)cc1 | 12.4 µM
71 | COC(=O)c1cc(O)c(OCc2ccccc2)c(O)c1 | > 30 µM (inactive)
72 | COc1ccc(C2=Nn3c(nnc3-c3cccnc3)SC2)cc1OC | > 30 µM (inactive)
73 | Cc1ccc(/C=N/NC(=O)c2nnn(-c3nonc3N)c2-c2cccs2)cc1 | 1.04 µM
74 | COc1ccc(OCC(=O)NCCCn2ccnc2)cc1 | > 30 µM (inactive)
75 | CCOc1cc(/C=C2\N=C3CCCCCN3C2=O)ccc1O | 19.3 µM
76 | Cc1ccc(S(=O)(=O)N2CCN(C(=O)n3ccnc3)CC2)cc1 | > 30 µM (inactive)
77 | Cc1cc(C)nc(NC(=O)/C=C/c2cccs2)c1 | > 30 µM (inactive)
78 | CC(=O)N(C)c1ccc(N=Cc2cc3c(cc2[N+](=O)[O-])OCO3)cc1 | 21.2 µM
79 | Cc1ccc(NC(=O)CSc2nnc(-c3ccncc3)s2)cc1 | > 30 µM (inactive)
80 | CCCCOC(=O)C1=C(C)Nc2ncnn2C1c1cc(OC)ccc1OC (stereo unspecified) | > 30 µM (inactive)
81 | Cc1ccc(S(=O)(=O)N2CCN(CC(=O)N/N=C\c3ccccn3)CC2)cc1 | > 30 µM (inactive)
82 | CCCOc1ccc(-c2nnc(N)s2)cc1 | > 30 µM (inactive)
83 | COc1cccc(/C=N/Nc2ccc([N+](=O)[O-])cn2)c1O | > 30 µM (inactive)
84 | Nc1c(C(=O)O)cnc2c(-c3ccc(Cl)cc3)cnn12 | 15.8 µM
85 | COc1cc(OC)cc(-c2nnc(SCc3c(F)cccc3Cl)o2)c1 | > 30 µM (inactive)
86 | O=C(CSCc1ccc([N+](=O)[O-])cc1)N/N=C/c1cccnc1 | > 30 µM (inactive)
87 | COc1cc(NC(=O)c2cc([N+](=O)[O-])ccc2NC(=O)CNC2CCCCC2)cc(OC)c1 | > 30 µM (inactive)
88 | O=C(Cc1c(F)cccc1Cl)Nc1ncc([N+](=O)[O-])s1 | 2.43 µM

Row | SMILES | AC50
89 | CCN(CC)c1ccc(C2C(C(=O)OC(C)C)C(=O)CC(C)(O)C2C(=O)OC(C)C)cc1 (stereo unspecified) | > 30 µM (inactive)
90 | Nc1nc2n(n1)C(c1ccc(F)cc1)CC(c1ccc(F)cc1)N2 (stereo unspecified) | > 30 µM (inactive)
91 | S=C(Nc1cccnc1)Nc1ccccn1 | > 30 µM (inactive)
92 | O=C(O)Cn1c(=O)c2c3c(sc2n(Cc2ccc(F)cc2)c1=O)CCCC3 | > 30 µM (inactive)
93 | Cn1c(SCc2cnc(-c3ccccc3)s2)nnc1C1COc2ccccc2O1 (stereo unspecified) | > 30 µM (inactive)
94 | CC(=O)N1CCc2c(sc(NC(=O)c3cccc(N4C(=O)CCC4=O)c3)c2C(N)=O)C1 | > 30 µM (inactive)
95 | Cc1ccc(-c2nnc(CSc3nnc(C)s3)o2)cc1 | > 30 µM (inactive)
96 | O=C(CSc1nnc(-c2ccc(O)cc2)o1)Nc1ccc2c(c1)OCCO2 | 0.463 µM
97 | CCOc1c(O)ccc(/C=C2\SC(=S)NC2=O)c1[N+](=O)[O-] | 20.8 µM
98 | FC(F)(F)c1cnc(N/N=C/c2ccncc2)c(Cl)c1 | > 30 µM (inactive)
99 | CN(C)c1ncnc2c1ncn2C1OC(CO)C(O)C1O (stereo unspecified) | > 30 µM (inactive)
100 | C=CCN1C(=O)/C(=C\c2ccco2)C(C(=O)OC)=C1C | > 30 µM (inactive)
101 | Nc1nc(NCc2ccccc2)nc(NCc2ccccc2)c1[N+](=O)[O-] | > 30 µM (inactive)
102 | Cc1ccc(S(=O)(=O)Nc2cc(Cl)c(O)c3ncccc23)cc1 | > 30 µM (inactive)
103 | CC(C)c1[nH]nc2c1C(c1ccco1)C(C#N)=C(N)O2 (stereo unspecified) | > 30 µM (inactive)
104 | O=C(Nc1cccnc1)c1scc2c1OCCO2 | 23.5 µM
105 | Nc1nonc1-n1nnc(C(=O)N/N=C/c2cccc(Cl)c2)c1-c1cccs1 | 0.614 µM
106 | COc1ccc(C2=Nn3c(nnc3-c3ccncc3)SC2)cc1 | 5.49 µM
